Where two headings read alike, the source gives them in different places.

This is an account of results in article PMC3199943, “Screening the MayBridge Rule of 3 Fragment Library for Compounds That Interact with the Trypanosoma brucei myo-Inositol-3-Phosphate Synthase and/or Show Trypanocidal Activity” (Molecular Biology International, 2011).

One assay deals with T1, TbINO1 (Trypanosoma brucei brucei, UniProt Q5QQ46).
T1 sequence (Q5QQ46 1-528): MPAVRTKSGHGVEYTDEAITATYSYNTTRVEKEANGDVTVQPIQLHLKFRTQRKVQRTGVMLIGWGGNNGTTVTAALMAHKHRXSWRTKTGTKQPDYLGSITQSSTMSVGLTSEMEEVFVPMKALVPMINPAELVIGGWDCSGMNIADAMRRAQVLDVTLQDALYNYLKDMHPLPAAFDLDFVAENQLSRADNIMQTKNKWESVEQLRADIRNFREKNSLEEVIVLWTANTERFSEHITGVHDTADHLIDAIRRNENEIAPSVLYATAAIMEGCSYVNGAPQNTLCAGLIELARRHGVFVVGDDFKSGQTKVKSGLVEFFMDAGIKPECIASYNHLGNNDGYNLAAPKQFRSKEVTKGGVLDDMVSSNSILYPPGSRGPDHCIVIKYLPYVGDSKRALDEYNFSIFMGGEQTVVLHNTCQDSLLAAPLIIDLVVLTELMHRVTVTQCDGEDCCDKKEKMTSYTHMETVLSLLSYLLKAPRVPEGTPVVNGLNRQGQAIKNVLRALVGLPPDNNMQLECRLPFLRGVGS
Kind of assay: biochemical. The class given is binding.

In another assay the test system is HeLa cells. Kind of assay: cells. Particulars: for viability at 500 µM: Homo sapiens, HeLa, 65 h. An outline of the steps: (§1)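 Alamar Blue read-out after a 5 h dye incubation that followed ~65 h compound exposure. Cells: HeLa or A549, 2 × 10^4/well, DMEM + 10% FCS + 2 mM L-Glutamine.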
The test system of another assay is A549 cells. Kind of assay: Cytotoxicity against A549 cells, Alamar Blue. The class given is cell-based. The conditions noted are these: Supplementary Table 1, compound 0.5 mM, percentage of controls (n=1); for viability at 500 µM: Homo sapiens, A549, 65 h. The method, boiled down:
as §1
For orientation: Resazurin is reduced to fluorescent resorufin, in cell work by metabolically active cells.

[1] abbreviates: read-out: Tb Ino1 Tm Shift [˚C].
Setting [2] is: read-out: HeLa Cells Alamar Blue.

`Cc1csc(C(N)=O)c1` [compound 134, 4‐methylthiophene‐2‐carboxamide]: the ΔTm at 1000 µM at TbINO1 (setting [1]) is 0.61 ± 0.07 °C. The results for the viability at 500 µM with HeLa cells (setting [2]) and with A549 cells were 83.1 ± 5.6% and 123%, respectively.
As for `Cc1nc(C(N)=S)c[nH]1` [compound 135, 2-methyl-1H-imidazole-4-carbothioamide], the ΔTm at 1000 µM at TbINO1 (read-out: TbIno1 Tm shift [°C]) turned out to be 1.74 ± 0.09 °C. Besides, the viability at 500 µM came to 90.3 ± 10.9% in the assay with HeLa cells (setting [2]), 90.3 ± 10.9% in the assay on HeLa cells (read-out: HeLa Cells Alamar Blue (% survival)) and 102% in the assay with A549 cells.
Regarding `NCc1ccccc1Cl` [compound 136, 2‐chlorobenzylamine], the ΔTm at 1000 µM on TbINO1 (setting [1]) came to 0.02 ± 0.07 °C. Besides, the viability at 500 µM stood at 53.3 ± 12.2% in the assay with HeLa cells (setting [2]) and 90.4% in the assay on A549 cells.
The corresponding values for `COC(=O)c1cccs1` [compound 138, methyl thiophene‐2‐carboxylate] are 0.31 ± 0.05 °C, 89.4 ± 9.3% and 121%.
The like results for `Cc1csc(C(=O)O)c1` [compound 139, 4‐methylthiophene‐2‐carboxylic acid] were, in that order, 0.08 ± 0.07 °C, 70.9 ± 10.7% and 121%.
The corresponding values for `Cc1cc(C(N)=S)no1` [compound 140, 5‐methylisoxazole‐3‐carbothioamide] are 0.2 ± 0.07 °C, 89.2 ± 6.5% and 110%.
As to `CC(C)(N)CN1CCCC1` [compound 142, 2‐methyl‐1‐(1‐pyrrolidinyl)‐2‐propanamine], at TbINO1 (Supplementary Table 1, compound 1mM, mean ± SD from Boltzman curve fitting), the “Tb Ino1 Tm Shift [˚C]” value came to 0.13 ± 0.07 °C. Further, in the assay with HeLa cells (Supplementary Table 1, compound 0.5 mM, percentage of controls, mean ± SD (n=3) or SE (n=2)), the “HeLa Cells Alamar Blue” value is on record as 89.9 ± 8.9 percentage of controls. Moreover, the “A549 Cells Alamar Blue” value in the assay on A549 cells is 96.3 percentage of controls.
As to `OCc1ccccc1Cl` [compound 143, (2‐chlorophenyl)methanol], the ΔTm at 1000 µM at TbINO1 (setting [1]) came to 0.46 ± 0.05 °C. For the same compound, the viability at 500 µM was 93.3 ± 6.6% with HeLa cells (setting [2]) and 109% in the assay with A549 cells.
The corresponding values for `CNc1ccc(F)cc1F` [compound 144, N1‐methyl‐2,4‐difluoroaniline] are 1.09 ± 0.06 °C, 79.3 ± 10.3% and 110%.
Take `Cc1ncsc1C(=O)O` [compound 145, 4‐Methyl‐thiazole‐5‐carboxylic acid]: at TbINO1 (setting [1]), the ΔTm at 1000 µM amounted to 0.01 ± 0.07 °C. Besides, the viability at 500 µM was determined as 90.6 ± 16.1% with HeLa cells (setting [2]) and 114% in the assay with A549 cells.
For `Cc1nc(C(=O)O)cs1` [compound 146, 2‐methyl‐1,3‐thiazole‐4‐carboxylic acid], the ΔTm at 1000 µM at TbINO1 (setting [1]) amounted to 0.1 ± 0.08 °C. Also, the viability at 500 µM was found to be 87 ± 6.4% in the assay with HeLa cells (setting [2]) and 109% with A549 cells.
In the case of `Cc1nc(C)c(CO)s1` [compound 147, (2,4‐dimethyl‐1,3‐thiazol‐5‐yl)methanol], on TbINO1 (setting [1]), the ΔTm at 1000 µM worked out at 0.14 ± 0.08 °C. Also, the values for the viability at 500 µM in the assay with HeLa cells (setting [2]) and in the assay with A549 cells were 93.6 ± 4.3% and 118%, respectively.
The corresponding values for `NC(=S)c1ccsc1` [compound 148, thiophene‐3‐carbothioamide] are 0.78 ± 0.08 °C, 92.3 ± 7% and 99.6%.
As for `c1cncc(-n2cccc2)c1` [compound 151, 3‐(1H‐pyrrol‐1‐yl)pyridine], the ΔTm at 1000 µM on TbINO1 (setting [1]) turned out to be 0.43 ± 0.06 °C. In addition, the viability at 500 µM is 90.3 ± 6% with HeLa cells (setting [2]) and 90.1% in the assay on A549 cells.
In the case of `Nc1cc2ccccc2cn1` [compound 153, isoquinolin‐3‐amine], the ΔTm at 1000 µM at TbINO1 (setting [1]) turned out to be 0.27 ± 0.06 °C. In addition, the results for the viability at 500 µM with HeLa cells (setting [2]) and with A549 cells were 88.5 ± 16.5% and 118%, respectively.
In the case of `CC(=O)c1ccc(C#N)cc1` [compound 155, 4‐acetylbenzonitrile], the ΔTm at 1000 µM on TbINO1 (Supplementary Table 1, compound 1mM, mean ± SD from Boltzman curve fitting, read-out: Tb Ino1 Tm Shift [˚C]) is 0.19 ± 0.06 °C. Further, the viability at 500 µM turned out to be 87.3 ± 16.6% in the assay on HeLa cells (setting [2]) and 131% with A549 cells.
As for `c1ccc(-c2cnco2)cc1` [compound 156, 5‐phenyl‐1,3‐oxazole], the ΔTm at 1000 µM on TbINO1 (setting [1]) worked out at 0.95 ± 0.06 °C. Further, the viability at 500 µM with HeLa cells (setting [2]) was determined as 77.5 ± 18.3%; in the assay with A549 cells, 104%.
The like results for `CC1Cc2ccccc2C1=O` (stereo not shown) [compound 157, 2‐methylindan‐1‐one] were, in that order, 0.14 ± 0.07 °C, 94.7 ± 3.5% and 126%.
